# Measurements from US7988972B2, “Immunoreactive peptides from Epstein-Barr virus” (Ortho-Clinical Diagnostics, Inc., priority 1993, dated 2011).
# Experiments:
# [1] = tested on: antibodies to peptides 50.10 (EA-D) and 17.1 (EA-R) in sequential sera; experiment: IgG ELISA on sequential sera of a patient with acute infectious mononucleosis; format: binding, human; conditions: sera at 1.20 dilution, (+) >0.25
# Source text: The early antigen D-R transition was followed in a patient during a course of acute infectious mononucleosis. Antibodies to peptides 50.10 (EA-D) and 17.1 (EA-R) were detected by ELISAs on specimens collected over a six month duration. […] Therefore, the peptides of the invention are useful for monitoring the course of EBV-associated disease in a patient.
# [2] = tested on: EA reactive antibody (IgG) in infectious mononucleosis (IM) sera; experiment: ELISA, EA peptides with EBV infectious mononucleosis sera; format: binding, human; conditions: for ELISA result, peptides with and without extensions: EA positive EBV IM acute serum; for O.D.: 420 nm; for 50.1 ELISA (OD reading): IFA EA <10, OD >0.2 positive
# Description: ELISA. The ELISA for measuring specific antibodies to p17, p50 or to the synthetic peptides was performed as previously described in detail (Luka et al., J. Immunol. Methods, 67:145-156, 1984). Aliquots of different antigen concentrations were diluted in 0.5M Na2CO3 buffer, pH 9.5, added to wells in polystyrene microtiter plates (Linbro) and the plates incubated overnight at 4° C. Following this incubation period, the plates were washed 5× with Tris-HCl, pH 7.4, containing 0.05% Tween 20, 50 mM NaCl and 100 mg per liter albumin (Sigma) and dried for 20 minutes at room temperature. The plates were screened with different anti-EA-R or EA-D antibody positive human sera and the monoclonal antibody to p17 or p50 to identify the optimal concentration of antigen to be used in the serological studies. Alkaline-phosphatase-labelled goat anti-human IgG (Sigma) or goat anti-mouse IgG (Sigma) was used as the indicator system.
# For the testing of human sera for antibodies to native p17, p50 or to the synthetic peptides, sera were diluted 1:10 in ELISA buffer, added in 0.1 ml volumes to wells coated with optimal concentrations of antigen and the plates were incubated for 60 minutes at room temperature. After 4 washes with ELISA buffer, 100 μl of alkaline phosphatase-labelled goat anti-human IgG in ELISA buffer were added to each well and the plates were incubated at room temperature for 1 hour. Following four more washes in buffer, the enzyme reaction was performed by dissolving 1 mg per ml of Sigma alkaline phosphatase substrate in 1M diethanolamine buffer, pH 10.4, containing 1 mM MgCl2 and 0.1 mM ZnCl2, and 100 μl of the mixture was then added to each well. The reaction was allowed to proceed for 30 minutes at 37° C. and then the plates were screened directly with a microplate reader, TITERTEK MULTISKAN MC (Flow), at 420 nm. Readings above 0.1 which was 2× the background noted with antibody-negative sera were considered positive reactions.
# When the entire 50.10 peptide was tested with 1M sera, 24/32 or 75% of the sera contained EA-D reactive antibody (IgG) (Table 4).
# Serological reactivity of EA peptides p17.1 and p50.1 which contained additional amino acids on their amino and carboxy termini was tested on EBV IM acute sera which was EA positive. The ELISA results shown in Table 5 indicate that the additional amino acids improved reactivity for both EA peptides.
# Immunofluorescence assays (IFA) were performed as described by Henle, et al. (Int. J. Cancer, 8:272-282, 1971). Western blot analysis was done by methods commonly used in the art (See for example, Coligan, et al., Current Protocols in Immunology, Wiley Interscience, 1991, Unit 12). Samples of EBV-infected cell lysates (P3HR-1) were tested with human whole antiserum from positive humans (Pearson, et al., Virology, 160:151-161, 1987). A comparison was made between EA serology by IFA, using the EA-D 50.1 peptide antisera, and ELISA serology using 50.1 peptide (see Example 2).
# [3] = 32 IM sera, values >0.5 positive (O.D. 420 nm)
sequence,measurement,setting,value
"KQKHPKKVKQAFNPL [p50.10, synthetic peptide from 50 Kd early antigen (EA-D) region of EBV]",IgG ELISA O.D. reading,"[1]; serum no. 9817, May 26, 1988",0.104
same,IgG ELISA O.D. reading,"[1]; serum no. 9820, May 31, 1988",0.094
same,IgG ELISA O.D. reading,"[1]; serum no. 9829, Jun. 07, 1988",0.120
same,IgG ELISA O.D. reading,"[1]; serum no. 9941, Jun. 20, 1988",0.147
same,IgG ELISA O.D. reading,"[1]; serum no. 9983, Jun. 27, 1988",0.817
same,IgG ELISA O.D. reading,"[1]; serum no. 10064, Jul. 18, 1988",0.821
same,IgG ELISA O.D. reading,"[1]; serum no. 10237, Aug. 29, 1988",0.561
same,IgG ELISA O.D. reading,"[1]; serum no. 10271, Sep. 20, 1988",0.100
same,IgG ELISA O.D. reading,"[1]; serum no. 10488, Oct. 21, 1988",0.095
same,IgG ELISA O.D. reading,"[1]; serum no. 10546, Nov. 15, 1988",0.140
same,% Positive,[2]; [3],75%
same,IM sera positive / tested,[2]; [3],24/32
same,"ELISA result, peptides with and without extensions",[2]; sample no. 2241,0.673
same,"ELISA result, peptides with and without extensions",[2]; sample no. 12498,0.342
same,"ELISA result, peptides with and without extensions",[2]; sample no. 12836,0.722
same,SCORE,[2]; IM serum sample no. 2241,+ (Values >0.5 were considered positive (O.D. readings at 420 nm).)
same,SCORE,[2]; IM serum sample no. 11984,+ (Values >0.5 were considered positive (O.D. readings at 420 nm).)
same,O.D.,[2]; IM serum sample no. 11984,0.722
same,SCORE,[2]; IM serum sample no. 12005,− (Values >0.5 were considered positive (O.D. readings at 420 nm).)
same,O.D.,[2]; IM serum sample no. 12005,0.441
same,SCORE,[2]; IM serum sample no. 12288,+ (Values >0.5 were considered positive (O.D. readings at 420 nm).)
same,O.D.,[2]; IM serum sample no. 12288,0.610
same,SCORE,[2]; IM serum sample no. 12407,+ (Values >0.5 were considered positive (O.D. readings at 420 nm).)
same,O.D.,[2]; IM serum sample no. 12407,0.751
same,SCORE,[2]; IM serum sample no. 12409,+ (Values >0.5 were considered positive (O.D. readings at 420 nm).)
same,O.D.,[2]; IM serum sample no. 12409,0.609
same,SCORE,[2]; IM serum sample no. 12418,− (Values >0.5 were considered positive (O.D. readings at 420 nm).)
same,O.D.,[2]; IM serum sample no. 12418,0.382
same,SCORE,[2]; IM serum sample no. 12498,− (Values >0.5 were considered positive (O.D. readings at 420 nm).)
same,SCORE,[2]; IM serum sample no. 12502,− (Values >0.5 were considered positive (O.D. readings at 420 nm).)
same,O.D.,[2]; IM serum sample no. 12502,0.270
same,SCORE,[2]; IM serum sample no. 12587,+ (Values >0.5 were considered positive (O.D. readings at 420 nm).)
same,O.D.,[2]; IM serum sample no. 12587,0.890
same,SCORE,[2]; IM serum sample no. 12600,− (Values >0.5 were considered positive (O.D. readings at 420 nm).)
same,O.D.,[2]; IM serum sample no. 12600,0.323
same,SCORE,[2]; IM serum sample no. 12611,− (Values >0.5 were considered positive (O.D. readings at 420 nm).)
same,O.D.,[2]; IM serum sample no. 12611,0.436
same,SCORE,[2]; IM serum sample no. 12801,+ (Values >0.5 were considered positive (O.D. readings at 420 nm).)
same,O.D.,[2]; IM serum sample no. 12801,0.605
same,SCORE,[2]; IM serum sample no. 12828,+ (Values >0.5 were considered positive (O.D. readings at 420 nm).)
same,O.D.,[2]; IM serum sample no. 12828,0.895
same,SCORE,[2]; IM serum sample no. 12829,+ (Values >0.5 were considered positive (O.D. readings at 420 nm).)
same,O.D.,[2]; IM serum sample no. 12829,0.652
same,SCORE,[2]; IM serum sample no. 12836,+ (Values >0.5 were considered positive (O.D. readings at 420 nm).)
same,SCORE,[2]; IM serum sample no. 12837,+ (Values >0.5 were considered positive (O.D. readings at 420 nm).)
same,O.D.,[2]; IM serum sample no. 12837,1.491
same,SCORE,[2]; IM serum sample no. 12840,+ (Values >0.5 were considered positive (O.D. readings at 420 nm).)
same,O.D.,[2]; IM serum sample no. 12840,0.723
same,SCORE,[2]; IM serum sample no. 12888,+ (Values >0.5 were considered positive (O.D. readings at 420 nm).)
same,O.D.,[2]; IM serum sample no. 12888,0.847
same,SCORE,[2]; IM serum sample no. 12889,+ (Values >0.5 were considered positive (O.D. readings at 420 nm).)
same,O.D.,[2]; IM serum sample no. 12889,1.184
same,SCORE,[2]; IM serum sample no. 12892,+ (Values >0.5 were considered positive (O.D. readings at 420 nm).)
same,O.D.,[2]; IM serum sample no. 12892,0.634
same,SCORE,[2]; IM serum sample no. 12893,+ (Values >0.5 were considered positive (O.D. readings at 420 nm).)
same,O.D.,[2]; IM serum sample no. 12893,0.626
same,SCORE,[2]; IM serum sample no. 12899,+ (Values >0.5 were considered positive (O.D. readings at 420 nm).)
same,O.D.,[2]; IM serum sample no. 12899,0.895
same,SCORE,[2]; IM serum sample no. 12900,− (Values >0.5 were considered positive (O.D. readings at 420 nm).)
same,O.D.,[2]; IM serum sample no. 12900,0.498
same,SCORE,[2]; IM serum sample no. 13075,− (Values >0.5 were considered positive (O.D. readings at 420 nm).)
same,O.D.,[2]; IM serum sample no. 13075,0.252
same,SCORE,[2]; IM serum sample no. 13419,+ (Values >0.5 were considered positive (O.D. readings at 420 nm).)
same,O.D.,[2]; IM serum sample no. 13419,0.678
same,SCORE,[2]; IM serum sample no. 13637,+ (Values >0.5 were considered positive (O.D. readings at 420 nm).)
same,O.D.,[2]; IM serum sample no. 13637,0.886
same,SCORE,[2]; IM serum sample no. 13769,+ (Values >0.5 were considered positive (O.D. readings at 420 nm).)
same,O.D.,[2]; IM serum sample no. 13769,1.307
same,SCORE,[2]; IM serum sample no. 13929,+ (Values >0.5 were considered positive (O.D. readings at 420 nm).)
same,O.D.,[2]; IM serum sample no. 13929,1.031
same,SCORE,[2]; IM serum sample no. 14043,+ (Values >0.5 were considered positive (O.D. readings at 420 nm).)
same,O.D.,[2]; IM serum sample no. 14043,0.631
same,SCORE,[2]; IM serum sample no. 14128,+ (Values >0.5 were considered positive (O.D. readings at 420 nm).)
same,O.D.,[2]; IM serum sample no. 14128,0.693
same,SCORE,[2]; IM serum sample no. 14131,+ (Values >0.5 were considered positive (O.D. readings at 420 nm).)
same,O.D.,[2]; IM serum sample no. 14131,0.530
same,50.1 ELISA (OD reading),"[2]; acute EBV IM sample 12502, diluted 1:10, EA-D Western blot positive",0.409
same,50.1 ELISA (OD reading),"[2]; acute EBV IM sample 12840, diluted 1:10, EA-D Western blot positive",0.257
same,50.1 ELISA (OD reading),"[2]; acute EBV IM sample 13769, diluted 1:10, EA-D Western blot positive",1.034
